Test results from paper PMC3711802 (IUBMB life, 2012).
Where two headings read alike, the source gives them in different places.

Experiments:
EGFR [1] = conditions: cited from earlier work
[2] = system: A431 subcutaneous xenografts; experiment: Treatment of subcutaneous A431 xenografts in nude mice; assay type: in vivo, human; conditions: EGFR over-expressing cancers
EGFR [3] = target: EGFR (Homo sapiens, UniProt P00533); experiment: Displacement of bound [^125I]-EGF in A431 cells; assay type: binding
EGFR expressing cells = conditions: in vitro and in vivo, cited from earlier work
EGFR [4] = conditions: ref [8] Li et al., cited from earlier work

## EGF: Recombinant human EGF (hEGF, Peprotech Asia)
EGFR [1]; ref [20]
  EGFR activation upon binding: activates the kinase moiety of the receptor

## Polyethyleneimine-polyetheleneglycol-EGF [PP-EGF]
[2]
  in vitro and in vivo efficacy of both vectors in PolyIC treatment: in vitro and in vivo efficacies of both vectors are comparable
EGFR [3]; [^125I]-EGF displacement, PolyIC complex vs uncomplexed conjugate
  enhancement of potency by complexation with PolyIC: approximately 10 fold

## Polyethyleneimine-polyetheleneglycol-GE11 [PPGE11]
[2]
  in vitro and in vivo efficacy of both vectors in PolyIC treatment: in vitro and in vivo efficacies of both vectors are comparable
EGFR expressing cells; ref [9],[10],[16]
  gene delivery into EGFR expressing cells: effective and specific gene delivery into EGFR expressing cells
EGFR expressing cells; ref [9],[10]
  targeting of EGFR over-expressing tumors: enabled the targeting of EGFR over-expressing tumors in vitro and in vivo
EGFR [3]; vs free GE11
  EGFR-binding affinity/inhibitory potency compared to GE11: much more potent EGFR binder as compared to GE11

## YHWYGYTPQNVI [GE11]
EGFR [1]; as previously shown by us, ref [9],[10]
  EGFR activation: does not activate the receptor
EGFR [1]; ref [8]
  EGFR activation: does not activate the EGFR
EGFR [1]; ref [9],[10]
  EGFR activation: without EGFR activation
EGFR [4]; as a free ligand
  affinity to the EGFR (in words): high affinity
EGFR [4]; free ligand
  affinity to the EGFR: ~ 22 nM
